We go through 5 molecules from ChEMBL document CHEMBL1153815, “Mapping the ribonucleolytic active site of bovine seminal ribonuclease. The binding of pyrimidinyl phosphonucleotide inhibitors” (Eur J Med Chem, 2009).

One test has as its target T1, Ribonuclease pancreatic (Bos taurus, UniProt P61823).
T1 sequence (P61823 whole entry): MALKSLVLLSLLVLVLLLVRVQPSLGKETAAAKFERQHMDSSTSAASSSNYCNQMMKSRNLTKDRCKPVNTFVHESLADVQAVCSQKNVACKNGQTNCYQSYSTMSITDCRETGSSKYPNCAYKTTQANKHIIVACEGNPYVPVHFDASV
Description: Inhibition of bovine pancreatic ribonuclease A assessed as enzyme activity by spectrophotometric method pH 6.

Test [1] relates to Mus musculus. Description: Inhibition of aspermatogenic activity of bovine seminal ribonuclease in mouse ICR assessed as diameter of somniferous tubule at 1:100 ratio of BS-Rnase+compound after 10 days administered once into left testes. It is filed as functional, organism-based.
For test [2], the system named is Mus musculus. Description: Inhibition of aspermatogenic activity of bovine seminal ribonuclease in mouse ICR assessed as diameter of somniferous tubule at 1:1 ratio of BS-Rnase+compound after 10 days administered once into left testes. In kind it is functional, organism-based.
In test [3] the test system is Mus musculus. Description: Inhibition of aspermatogenic activity of bovine seminal ribonuclease in mouse ICR assessed as width of spermatogenic layer at 1:100 ratio of BS-Rnase+compound after 10 days administered once into left testes. It is filed as functional, organism-based.
Test [4] relates to Mus musculus. Kind of test: Inhibition of aspermatogenic activity of bovine seminal ribonuclease in mouse ICR assessed as width of spermatogenic layer at 1:1 ratio of BS-Rnase+compound after 10 days administered once into left testes. It is filed as functional, organism-based.
Test [5] concerns Mus musculus. Description: Inhibition of aspermatogenic activity of bovine seminal ribonuclease in mouse ICR assessed as weight of the testes at 1:100 ratio of BS-Rnase+compound after 10 days administered once into left testes. It is filed as functional, organism-based. The following applies: Testis.
The subject of test [6] is Mus musculus. Kind of test: Inhibition of aspermatogenic activity of bovine seminal ribonuclease in mouse ICR assessed as weight of the testes at 1:1 ratio of BS-Rnase+compound after 10 days administered once into left testes. The following applies: Testis. It is filed as functional, organism-based.
Test [7] has as its system Mus musculus. Kind of test: Inhibition of aspermatogenic activity of bovine […] assessed as diameter of somniferous tubule at 1:100 ratio of BS-Rnase+compound after 10 days administered once into left testes. In kind it is functional, organism-based.
In test [8] the test system is Mus musculus. Kind of test: Inhibition of aspermatogenic activity of bovine […] assessed as width of spermatogenic layer at 1:100 ratio of BS-Rnase+compound after 10 days administered once into left testes. In kind it is functional, organism-based.
For test [9], the system named is Mus musculus. Kind of test: Inhibition of aspermatogenic activity of bovine […] assessed as weight of the testes at 1:1 ratio of BS-Rnase+compound after 10 days administered once into left testes. It is filed as functional, organism-based. Particulars: Testis.
In a further test the target is T2, Seminal ribonuclease (Bos taurus, UniProt P00669).
T2 sequence (P00669 whole entry): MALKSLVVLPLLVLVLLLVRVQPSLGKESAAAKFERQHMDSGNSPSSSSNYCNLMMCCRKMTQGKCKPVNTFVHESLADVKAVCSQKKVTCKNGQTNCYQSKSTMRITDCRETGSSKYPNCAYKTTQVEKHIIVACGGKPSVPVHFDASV
Description: Inhibition of bovine seminal ribonuclease assessed as enzyme activity by spectrophotometric method at pH 6.

The source made the active and inactive calls. The calls are words filed in the database; no cut-off is given here.

As for `O=c1ccn([C@@H]2O[C@H](COP(=O)(O)OP(=O)(O)O)[C@@H](O)[C@H]2O)c(=O)[nH]1` [URIDINE_DIPHOSPHATE], the Ki at Ribonuclease pancreatic is 647 µM.

As for `Nc1ccn([C@@H]2O[C@H](CO)[C@@H](OP(=O)(O)O)[C@H]2O)c(=O)n1`, the outcome with Mus musculus [1], in the test on Mus musculus [3] and in the test on Mus musculus [5] was inactive. Further, the result in the test on Mus musculus [2], in the test on Mus musculus [4] and in the test with Mus musculus [6] was Active. Moreover, at Ribonuclease pancreatic, the inhibition constant (Ki) is 20.1 µM.

As to `O=c1ccn([C@@H]2O[C@H](CO)[C@@H](O)[C@H]2OP(=O)(O)O)c(=O)[nH]1`, at Ribonuclease pancreatic, the Ki is 11.6 µM.

With `O=c1ccn([C@@H]2O[C@H](CO)[C@@H](OP(=O)(O)O)[C@H]2O)c(=O)[nH]1`, the inhibition constant (Ki) on Ribonuclease pancreatic came to 78.5 µM.

Consider `Nc1ccn([C@@H]2O[C@H](COP(=O)(O)O)[C@@H](O)[C@H]2O)c(=O)n1`, for which the outcome in the test on Mus musculus [7], in the test with Mus musculus [8] and in the test with Mus musculus [9] was Active. The result in the test with Mus musculus [1], in the test with Mus musculus [3] and in the test with Mus musculus [5] was inactive. The values for the inhibition constant (Ki) on Seminal ribonuclease and at Ribonuclease pancreatic were 1560 µM and 844 µM, respectively.
